Reference: patent US6734168B2, “Endothelial monocyte activating polypeptide II: a mediator which activates host response” (The Trustees of Columbia University in the City of New York, priority 1993, dated 2004)
No end group written: not given here.

These substances were tested on human peripheral blood monocytes (MPs) (assay: Mononuclear phagocyte migration in microchemotaxis chambers). Details: microchemotaxis chamber, 3 hrs at 37° C.
Type: cell-based
Method: (§1) Assessment of mononuclear phagocyte (mononuclears) and polymorphonuclear leukocyte (PMN) migration. Human peripheral blood monocytes were isolated from the blood of normal healthy volunteers (30). Blood was centrifuged on Hisopaque 1077 (Sigma, St. Louis, Mo.), the mononuclear fraction was obtained, washed twice in Earle's balanced salt solution, resuspended in RPMI 1640 containing human serum (10%; Gemini, Calabasas, Calif.), plated on tissue culture dishes and incubated at 37° C. for 1-2 hrs. Nonadherent cells were removed by washing the plate twice with balanced salt solution, and adherent cells were harvested by incubation with calcium-magnesium free buffer containing EDTA (2 mM) for 15 min at 37° C., followed by extensive washing. PMNs were prepared by centrifugation over Hisopaque 1119 as per the manufacturer's protocol (Sigma). Chemotaxis assays were performed in microchemotaxis chamber (NeuroProbe, Bethesda, Md.) containing Nucleopore polycarbonate membranes (5 μm; Nucleopore, Pleasonton, Calif.). Mononuclears or PMNs were suspended in RPMI 1640 containing fetal bovine serum (1%) and 10^4 cells were added per well to the upper chamber. The chemotactic stimulus was added to the indicated chamber, and assays were performed in quadruplicate over a 3 hr or 45 min incubation period at 37° C., with mononuclear cells or PMNs, respectively, after which non-migrating cells were removed, membranes were fixed in methanol, migrating cells were visualized with Wright's stain. Cells in nine high-power fields were counted, and the mean and standard error of the mean (SEM) were determined.
(§2) Cell migration was studied by adding MPs or PMNs (10^4 cells/well) resuspended in RPMI 1640 with fetal calf serum (1%; Gemini) to the upper wells of a microchemotaxis chamber (Neuro Probe, Bethesda, Md.) containing Nucleopore polycarbonate membranes (5 μm, Nucleopore, Pleasanton Calif.), as described (7,29-30). The chemotactic stimulus was placed in the upper or lower chamber, as indicated, and cells were allowed to migrate for 3 hrs (for MPs) or 45 min (for PMNs) at 37° C. Following removal of non-migrating cells, membranes were fixed in methanol and migrating cells were visualized with Wright's stain. Assays were performed in quadruplicate, and cells were counted in nine high-power fields in each case (mean±SEM is shown in the figures).
(§3) Migration of PMNs and MPs—Migration was studied using cells (10^4 and 10^3 cells/well form PMNs and MPs, respectively) resuspended in RPMI 1640 with fetal calf serum (1%) added to the upper wells of a microchemotaxis chamber (Neuro Probe, Bethesda, Md.) containing Nucleopore polycarbonate membranes (5 um, Nucleopor, Pleasanton, Calif.), as described (13, 22, 35). The stimulus was placed in the upper or lower chamber, as indicated, and the cells were allowed to migrate for 3 h (for MPs) or 45 min (for PMNs) at 37° C. Following removal of nonmigrating cells, membranes were fixed in methanol, and migrating cells were visualized with Wright's stain. Assays were performed in quadruplicate, and cells were counted in […] high-power fields in each case (mean±S.E. is shown in the figures).

Substance	Induction of MP (mononuclear cell) migration (chemotaxis)
CRAQTMANSGIK [peptide derived from the C-terminal portion of EMAP II, reference compound]	inactive
IRKDMDKVETFLRIVQ [irrelevant peptide derived from growth hormone, reference compound]	inactive
AVLPRSAKELRL [peptide derived from the ELR-region of IL-8, residues #23-34, reference compound]	inactive

Each substance was assayed on human PMNs (assay: PMN migration in microchemotaxis chambers). Details: microchemotaxis chamber, 45 min at 37° C.
Type: cell-based
Set-up: key to PMN MIGRATION: (+) indicates the peptide induced PMN migration; (−) indicates the peptide did not induce PMN migration above levels seen in controls which contained no chemotactic stimulus
Method: as §1, §2, §3

Substance	Induction of PMN migration (chemotaxis)
CRAQTMANSGIK [peptide derived from the C-terminal portion of EMAP II, reference compound]	no chemotaxis was observed
IRKDMDKVETFLRIVQ [irrelevant peptide derived from growth hormone, reference compound]	no chemotaxis was observed
AVLPRSAKELRL [peptide derived from the ELR-region of IL-8, residues #23-34, reference compound]	no chemotaxis was observed

Same assay, conditions: peptides 100 pM in each case

Substance	PMN MIGRATION
ASRLDL	−
RIGRIVTAKY	+
RIGRIVT	+
ASRLDLRIGRIVTAK	+
RIGRAVT	−
AIGRIVT	+
ASRLDLRIGC*IVTAK	+
LRIGRIVTAKY	+
RIGRIIT	+

These substances were tested on human MPs (assay: [Ca2+]i measurement in MPs (fura-2)). Details: not given.
Type: cell-based
Method: (§4) [Ca^2+1]i measurements. PMNs or MPs (2×10^7 cells in each case) were incubated with fura-2 AM (1 μM) and pluronic detergent (0.02%) for 12 min at room temperature, diluted sixfold, and incubated for a further 30 min at room temperature to allow for complete hydrolysis of the dye. Cells were then resuspended in HEPES-buffered saline at 5×10^5 cells/ml (32). For experiments using MPs, sulfinpyrazone (0.5 mM) was included at all steps to minimize both dye sequestration into intracellular organelles and dye efflux (33). Fluorescence of fura-2 was monitored at 37° C. in a thermostatically-controlled cuvette installed in a Perkin Elmer Model 650-40 fluorescense spectrophotometer. Calibration of [Ca^2+]i was performed as described (34).
For determination of [Ca^2+] in PMSs and MPs, cells (2×10^7 in each case) were incubated with fura-2 AM (1 um) and pluronci detergent (0.02%) at room temperature, diluted 6-fold, and incubated for a further 30 min at room temperature to allow for complete hydrolysis of the dye. Cells were then resuspended in HEPES-buffered saline at 5×10^5 cells/ml (32). For MPs, sulfinpyrazone (0.5 mM) was included at all steps to minimize both dye sequestration into intracellular organelles and dye efflux (33). Fluorescence of fura-2 was monitored at 37° C. in a thermostatically controlled cuvette installed in a Perkin Elmer model 650-40 fluorescence spectrophotometer. […]

Substance	Rise in [Ca2+]i in MPs
RIGRIVT	insufficient to promote increases in [Ca^2+]i

The substances below were run on ECs (assay: Pilot binding studies using ECs). Details: data not shown.

Specific binding to ECs	Substance
specific binding	125I-RIGRIVTAKY (also: 125I label)

The substances below were run on human MPs (assay: Radioligand binding of 125I-[…] to MPs). Details: 4° C.
Method: Radioligand binding studies were performed on human MPs plated in 96-well plates (5-6×10^4 cells/well). Cells were washed twice with Hanks balanced salt solution, and then Dulbecco's Modified Eagle Medium containing HEPES (25 mM; pH 7.4), penicillin/streptomycin (50 U/ml; 50 μg/ml), and bovine serum albumin-fatty acid free (0.5%; Sigma) were added (0.1 ml/well). Cultures were incubated at 4° C. for 2 hrs with ^125I-[…] alone or in the presence of unlabelled peptide/protein. Each well was washed four times over a period of 20 sec, and cell-associated radioactivity was eluted by an acidic buffer (HCl, 0.1 M, pH 2; NaCl, 0.1 M) at 4° C. for 5 min. During the elution period, there was no detachment of cells from the growth substrate. The conditions for incubation and washing used in the binding studies shown in FIG. 3 (2 hrs at 4° C.) were […] to allow binding of ^125I-[…] to reach an apparent maximum, even at the lowest tracer concentrations, and to remove unbound material by washing quickly so that <10% of the cell-bound radioactivity dissociated.

Substance	N, binding sites
125I-RIGRIVTAKY (also: 125I label)	8.3±1.2×10^3 molecules of peptide bound per cell

Same assay, conditions: excess / increasing concentrations of unlabelled competitor

Competition for binding of 125I-RIGRIVTAKY to MPs by unlabelled peptide/protein	Substance
had no effect	ASRLDL
inhibition	RICRIVTAK
had no effect	CRAQTMANSGIK [peptide derived from the C-terminal portion of EMAP II, reference compound]
blocked	RIGRIVT
had no effect	RIGRAVT
blocked	ASRLDLRTGRIVT

Same assay, conditions: read-out: Kd of specific binding to MPs (one-site model); 4° C.

Kd	Substance
0.19 ± 0.11 nM	125I-RIGRIVTAKY (also: 125I label)

What follows are substances tested on human PMNs (assay: [Ca2+]i measurement in PMNs (fura-2)). Details: not given.
Type: cell-based
Method: as §4
For determination of [Ca^2+] in PMSs and MPs, cells (2×10^7 in each case) were incubated with fura-2 AM (1 um) and pluronci detergent (0.02%) at room temperature, diluted 6-fold, and incubated for a further 30 min at room temperature to allow for complete hydrolysis of the dye. Cells were then resuspended in HEPES-buffered saline at 5×10^5 cells/ml (32). For MPs, sulfinpyrazone (0.5 mM) was included at all steps to minimize both dye sequestration into intracellular organelles and dye efflux (33). Fluorescence of fura-2 was monitored at 37° C. in a thermostatically controlled cuvette installed in a Perkin Elmer model 650-40 fluorescence spectrophotometer. Calibration of [Ca^2+] was performed as described (34).

Substance	Rise in [Ca2+]i in PMNs
ASRLDL	inactive
RIGRIVTAKY	did not promote enhanced [Ca^2+]i
RIGRIVT	did not promote enhanced [Ca^2+]i
